According to ChEMBL document CHEMBL1250488, “Structural and functional basis of resistance to neuraminidase inhibitors of influenza B viruses” (J Med Chem, 2010):

Columns and labels:
[1] = Inhibition of Influenza B virus (B/Perth/211/2001) recombinant wild type neuraminidase expressed in Sf21 insect cells after 60 mins by MUNANA based assay
[2] = Inhibition of Influenza B virus (B/Perth/211/2001) wild type recombinant neuraminidase expressed in Sf21 insect cells preincubated for 30 mins measured after 60 mins by MUNANA based assay
[3] = Inhibition of Influenza B virus B/Gifu/11/2005 wild type neuraminidase expressed in Sf21 insect cells after 60 mins by MUNANA based assay
[4] = Inhibition of Influenza B virus B/Gifu/11/2005 wild type neuraminidase expressed in Sf21 insect cells preincubated for 30 mins measured after 60 mins by MUNANA based assay

O=C(O)C1(F)O[C@H]([C@H](O)[C@H](O)CO)[C@H](O)[C@@H](O)C1F (some centres not stated)
IC50 [1]: 37700 nM

CCC(CC)[C@H](NC(C)=O)[C@@H]1[C@H](O)[C@@H](C(=O)O)C[C@H]1NC(=N)N [PERAMIVIR ANHYDROUS]
Ki [1]: 1.2 nM | IC50 [2]: 2.8 nM | Ki [2]: 0.6 nM | Ki [3]: 0.7 nM | IC50 [4]: 2.1 nM | Ki [4]: 0.3 nM
